The source of these data is PubChem BioAssay (NCI).

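Method: 48-hour compound exposure of cells in 96-well plates, five concentrations, linear interpolation of endpoints. GI50 marks 50% less growth. TGI denotes the concentration required for complete inhibition of growth.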

Among the test systems are HCC-2998 colon; MOLT-4 leukemia; HT29 colon; HCT-116 colon; SF-268 CNS; OVCAR-5 ovarian; UACC-62 melanoma; MDA-MB-231 breast; NCI-H460 lung; M14 melanoma.
What all share (assay): DTP human tumour cell line panel, 48 h

What is called GI50 is the concentration that inhibits growth by half. Usually TGI stands for the concentration at which net growth stops. Low values mean greater sensitivity of the cells, high ones lower sensitivity of the cells. In the case of `C=C(CN1CCN(c2ccc(F)c(Cl)c2)CC1)c1ccc(C(=O)Nc2ccccc2N)cc1`, the GI50 in the assay with HCC-2998 colon is 9.47 µM; in the assay with MOLT-4 leukemia, 0.764 µM; in the assay on HT29 colon it was 2.32 µM; in the assay on HCT-116 colon, 3.08 µM; with SF-268 CNS it was 4.35 µM; in the assay with OVCAR-5 ovarian, 15.1 µM. Moreover, the GI50 was 5.24 µM in the assay on UACC-62 melanoma, 1.81 µM with MDA-MB-231 breast, 5.08 µM in the assay with NCI-H460 lung and 2.65 µM in the assay on M14 melanoma. Besides, the TGI is 24.9 µM in the assay with HCC-2998 colon; 4 µM with MOLT-4 leukemia; greater than 100 µM in the assay with HT29 colon; 10.3 µM in the assay on HCT-116 colon; greater than 100 µM in the assay on SF-268 CNS; greater than 100 µM in the assay on OVCAR-5 ovarian. Besides, the TGI in the assay on UACC-62 melanoma is 54.3 µM; in the assay on MDA-MB-231 breast, 6.81 µM; in the assay on NCI-H460 lung, greater than 100 µM; in the assay with M14 melanoma it was 11.6 µM.
Regarding `O=C1CC2OCC=C3CN4CCC5(C(=O)O)C(N1)C2C3CC45` (stereo not given), the TGI in the assay with HCC-2998 colon, with MOLT-4 leukemia, in the assay on HT29 colon, in the assay on HCT-116 colon, in the assay on SF-268 CNS and with OVCAR-5 ovarian was greater than 100 µM in each case. In addition, the TGI in the assay with UACC-62 melanoma, with MDA-MB-231 breast, with NCI-H460 lung and in the assay on M14 melanoma was greater than 100 µM each time.
Take `O=S(=O)(Nc1ccc(Cl)c(Cl)c1)c1ccc(-c2cnc(C3CC3)o2)cc1`: the GI50 was 1.81 µM in the assay with HCC-2998 colon; 0.659 µM in the assay on MOLT-4 leukemia; 0.403 µM with HT29 colon; 0.458 µM in the assay on HCT-116 colon; 1.26 µM in the assay on SF-268 CNS; 2.32 µM in the assay on OVCAR-5 ovarian. Also, the GI50 in the assay on UACC-62 melanoma was 0.433 µM; in the assay with MDA-MB-231 breast, 1.59 µM; with NCI-H460 lung it was 0.368 µM; in the assay on M14 melanoma, 0.418 µM. Further, the total growth inhibition concentration (TGI) in the assay on HCC-2998 colon is 10.3 µM; with MOLT-4 leukemia it was greater than 63.6 µM; in the assay on HT29 colon, 16.8 µM; in the assay on HCT-116 colon, 13.9 µM; in the assay with SF-268 CNS it was 23.8 µM; in the assay on OVCAR-5 ovarian, 17.3 µM. Moreover, the TGI with UACC-62 melanoma was 14.5 µM; in the assay on MDA-MB-231 breast, 15.8 µM; in the assay with NCI-H460 lung, 11.6 µM; with M14 melanoma, 13.1 µM.
With `CCOC(=O)N(O)c1ccc(/C=C/c2ccccc2)cc1`, the GI50 is 7.03 µM in the assay with HCC-2998 colon; 11 µM with MOLT-4 leukemia; 8.3 µM in the assay with HT29 colon; 0.407 µM in the assay with HCT-116 colon; 18.2 µM with SF-268 CNS; 0.737 µM in the assay with OVCAR-5 ovarian. The GI50 in the assay on UACC-62 melanoma is 0.47 µM; with MDA-MB-231 breast it was 9.39 µM; in the assay with NCI-H460 lung it was 0.913 µM; in the assay with M14 melanoma, 7.17 µM. Moreover, the TGI is 21.3 µM in the assay on HCC-2998 colon; 51.3 µM in the assay on MOLT-4 leukemia; 31.5 µM in the assay on HT29 colon; 10.5 µM with HCT-116 colon; greater than 100 µM in the assay on SF-268 CNS; 9.71 µM in the assay on OVCAR-5 ovarian. In addition, the TGI came out at 3.07 µM with UACC-62 melanoma, 39.9 µM with MDA-MB-231 breast, 15.6 µM in the assay with NCI-H460 lung and 26.8 µM in the assay with M14 melanoma.
In the case of `C[C@H]1CCC2C(OC(=O)[C@@H]2CN(C)C)[C@]2(C)C(=O)C=CC12O` (stereo not given in full), the TGI stood at 18.2 µM with HCC-2998 colon; 20.2 µM in the assay with MOLT-4 leukemia; 16 µM with HT29 colon; 12.5 µM in the assay with HCT-116 colon; 28.6 µM in the assay on SF-268 CNS; 34.1 µM with OVCAR-5 ovarian. The TGI with UACC-62 melanoma was found to be 9.32 µM; with MDA-MB-231 breast it was 25.4 µM; in the assay on NCI-H460 lung it was 28.7 µM; with M14 melanoma, 14.8 µM.
For the molecule `N=C1C=C(N)C(=O)c2ccccc21`, the GI50 in the assay with HCC-2998 colon is 1.39 µM; in the assay on MOLT-4 leukemia, 0.215 µM; with HT29 colon, 0.386 µM; in the assay on HCT-116 colon, 0.183 µM; in the assay with SF-268 CNS, 0.199 µM; in the assay on OVCAR-5 ovarian, 0.184 µM. The concentration for 50% growth inhibition (GI50) with UACC-62 melanoma was 0.181 µM; with MDA-MB-231 breast it was 0.18 µM; in the assay with NCI-H460 lung, 1.81 µM; in the assay on M14 melanoma, 0.209 µM. The concentration for total growth inhibition (TGI) in the assay on HCC-2998 colon stood at 2.76 µM; in the assay with MOLT-4 leukemia, 0.558 µM; with HT29 colon, 1.82 µM; in the assay with HCT-116 colon, 0.451 µM; in the assay with SF-268 CNS, 0.451 µM; in the assay on OVCAR-5 ovarian, 0.373 µM. Moreover, the TGI in the assay on UACC-62 melanoma came out at 0.352 µM; in the assay on MDA-MB-231 breast it was 0.554 µM; in the assay with NCI-H460 lung it was 4.01 µM; in the assay on M14 melanoma it was 0.422 µM.
In the case of `C[C@H]1CC[C@@H]2[C@@H](C)[C@H]3[C@H](C[C@H]4[C@@H]5CC=C6C[C@@H](O)CC[C@]6(C)[C@H]5CC[C@]34C)N2C1`, the TGI is greater than 100 µM in the assay with HCC-2998 colon; greater than 100 µM in the assay with MOLT-4 leukemia; 43 µM in the assay on HT29 colon; greater than 100 µM in the assay with HCT-116 colon; greater than 100 µM in the assay with SF-268 CNS; greater than 100 µM in the assay on OVCAR-5 ovarian. Moreover, the TGI in the assay with UACC-62 melanoma, with MDA-MB-231 breast, in the assay on NCI-H460 lung and in the assay on M14 melanoma was greater than 100 µM throughout.
For `C[C@@H](C[C@H](CCO)c1ccccc1)c1ccc2ccccc2c1`, the GI50 in the assay with HCC-2998 colon is 1.74 µM; in the assay with MOLT-4 leukemia, 0.356 µM; in the assay with HT29 colon it was 1.43 µM; with HCT-116 colon it was 1.36 µM; in the assay with SF-268 CNS, 1.48 µM; in the assay on OVCAR-5 ovarian, 1.57 µM. For the same molecule, the GI50 in the assay on UACC-62 melanoma was 1.42 µM; in the assay with MDA-MB-231 breast, 1.6 µM; in the assay with NCI-H460 lung, 1.79 µM; in the assay on M14 melanoma, 1.46 µM. Moreover, the TGI in the assay on HCC-2998 colon stood at 3.27 µM; in the assay on MOLT-4 leukemia, 1.61 µM; in the assay with HT29 colon it was 2.8 µM; in the assay with HCT-116 colon, 2.67 µM; in the assay on SF-268 CNS, 3.09 µM; in the assay with OVCAR-5 ovarian, 3.04 µM. In addition, the TGI turned out to be 2.86 µM with UACC-62 melanoma, 3.19 µM in the assay with MDA-MB-231 breast, 3.42 µM in the assay on NCI-H460 lung and 2.84 µM in the assay on M14 melanoma.
For the molecule `CC(C)OP(=O)(OC(C)C)/C(C#N)=C/c1c[nH]c2ccccc12`, the total growth inhibition concentration (TGI) in the assay with HCC-2998 colon, in the assay with MOLT-4 leukemia, in the assay on HT29 colon, in the assay on HCT-116 colon, in the assay with SF-268 CNS and with OVCAR-5 ovarian was greater than 100 µM throughout. In addition, the TGI with UACC-62 melanoma, in the assay on MDA-MB-231 breast, with NCI-H460 lung and in the assay with M14 melanoma was greater than 100 µM each time.
